Test results from ChEMBL document CHEMBL5393457, “Combined inhibition of amino acid transporters for inhibiting human plasmacytoid dendritic cell activity during autoimmunity” (2022).
Active and inactive are the calls of the source.

What was measured:
[1] = biological target: T1, Janus Kinase (JAK) (Homo sapiens) (UniProt P52333+P23458+O60674+P29597); assay: Inhibition of JAK in IL-3 and CpG-A-stimulated human plasmacytoid dendritic cells at 0.2 to 20 uM assessed as decrease in TNF production; format: cell-based; conditions: Plasmacytoid dendritic cell, dose 0.2-20 µM
[2] = biological target: T1, Janus Kinase (JAK) (Homo sapiens); assay: Inhibition of JAK in IL-3 and CpG-A-stimulated human plasmacytoid dendritic cells at 0.2 to 20 uM assessed as decrease in IFN-alpha production; format: cell-based; conditions: Plasmacytoid dendritic cell, dose 0.2-20 µM
[3] = biological target: T2, Cystine/glutamate transporter (Homo sapiens) (UniProt Q9UPY5); assay: Inhibition of XCT in IL-3 and CpG-A-stimulated human plasmacytoid dendritic cells at 100 uM assessed as decrease in TNF production in presence of 10 to 50 nM IQDMA; format: cell-based; conditions: Plasmacytoid dendritic cell
T2 sequence (whole entry): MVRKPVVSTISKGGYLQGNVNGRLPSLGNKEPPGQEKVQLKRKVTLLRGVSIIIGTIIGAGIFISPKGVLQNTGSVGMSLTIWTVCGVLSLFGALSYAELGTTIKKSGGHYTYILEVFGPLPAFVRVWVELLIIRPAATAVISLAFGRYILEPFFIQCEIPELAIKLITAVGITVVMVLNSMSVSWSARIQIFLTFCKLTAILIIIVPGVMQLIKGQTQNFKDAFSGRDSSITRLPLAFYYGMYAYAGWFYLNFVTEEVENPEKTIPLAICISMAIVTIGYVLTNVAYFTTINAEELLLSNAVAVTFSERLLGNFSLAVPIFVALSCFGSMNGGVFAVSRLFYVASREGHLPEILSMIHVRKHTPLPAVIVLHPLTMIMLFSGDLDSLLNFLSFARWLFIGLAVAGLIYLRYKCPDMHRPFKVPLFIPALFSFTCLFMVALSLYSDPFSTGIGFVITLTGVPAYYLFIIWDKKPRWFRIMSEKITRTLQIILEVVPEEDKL

[4] = biological target: T2, Cystine/glutamate transporter (Homo sapiens); assay: Inhibition of XCT in IL-3 and CpG-A-stimulated human plasmacytoid dendritic cells at 100 uM assessed as decrease in IFN-alpha production in presence of 1 to 2 uM JPH203; format: cell-based; conditions: Plasmacytoid dendritic cell
[5] = biological target: Tyrosine-protein kinase JAK2 (Homo sapiens) (UniProt O60674); assay: Inhibition of JAK2 in CpG-A-activated human plasmacytoid dendritic cells at 100 uM assessed as decrease in TNF production in presence of 25 to 100 uM baricitinib; format: cell-based; conditions: Plasmacytoid dendritic cell
Sequence of Tyrosine-protein kinase JAK2 (Homo sapiens) (O60674 whole entry): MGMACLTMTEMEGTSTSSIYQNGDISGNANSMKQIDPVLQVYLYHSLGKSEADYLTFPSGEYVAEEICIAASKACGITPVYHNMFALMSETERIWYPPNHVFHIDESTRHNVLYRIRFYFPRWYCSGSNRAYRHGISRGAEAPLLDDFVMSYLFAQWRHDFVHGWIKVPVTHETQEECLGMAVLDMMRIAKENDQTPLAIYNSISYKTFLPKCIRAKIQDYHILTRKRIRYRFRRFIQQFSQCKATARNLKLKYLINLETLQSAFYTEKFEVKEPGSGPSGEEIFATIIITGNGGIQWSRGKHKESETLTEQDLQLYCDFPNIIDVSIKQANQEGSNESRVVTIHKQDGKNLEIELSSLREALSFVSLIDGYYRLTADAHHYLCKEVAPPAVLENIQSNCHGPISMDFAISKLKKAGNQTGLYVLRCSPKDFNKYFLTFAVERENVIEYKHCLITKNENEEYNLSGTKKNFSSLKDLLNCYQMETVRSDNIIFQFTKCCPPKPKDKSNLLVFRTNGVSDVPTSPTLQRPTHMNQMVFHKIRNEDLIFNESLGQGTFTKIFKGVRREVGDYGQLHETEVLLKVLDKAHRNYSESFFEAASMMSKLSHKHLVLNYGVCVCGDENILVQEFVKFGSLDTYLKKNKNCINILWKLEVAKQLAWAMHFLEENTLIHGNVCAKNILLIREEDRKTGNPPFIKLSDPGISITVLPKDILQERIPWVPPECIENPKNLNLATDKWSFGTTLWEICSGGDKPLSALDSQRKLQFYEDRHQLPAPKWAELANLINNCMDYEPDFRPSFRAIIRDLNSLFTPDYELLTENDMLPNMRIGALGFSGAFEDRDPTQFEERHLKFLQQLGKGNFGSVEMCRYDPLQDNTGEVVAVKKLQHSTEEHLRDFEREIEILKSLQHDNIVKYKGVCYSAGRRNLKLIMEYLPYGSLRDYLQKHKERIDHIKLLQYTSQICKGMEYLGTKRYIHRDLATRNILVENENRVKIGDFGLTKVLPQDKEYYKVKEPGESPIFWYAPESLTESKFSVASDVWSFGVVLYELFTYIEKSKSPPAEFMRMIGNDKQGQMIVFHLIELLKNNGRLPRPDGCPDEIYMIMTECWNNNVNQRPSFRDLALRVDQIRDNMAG

[6] = biological target: T2, Cystine/glutamate transporter (Homo sapiens); assay: Inhibition of XCT in IL-3 and CpG-A-stimulated human plasmacytoid dendritic cells at 100 uM assessed as decrease in TNF production in presence of 1 to 2 uM AC-4-130; format: cell-based; conditions: Plasmacytoid dendritic cell
[7] = biological target: T2, Cystine/glutamate transporter (Homo sapiens); assay: Inhibition of XCT in IL-3 CpG-A-activated human plasma at 100 uM assessed as decrease in pDC activation in presence of 0.1 uM baricitinib
[8] = biological target: T2, Cystine/glutamate transporter (Homo sapiens); assay: Inhibition of XCT in IL-3 and CpG-A-stimulated human plasmacytoid dendritic cells at 100 uM assessed as decrease in TNF production in presence of 1 to 2 uM JPH203; format: cell-based; conditions: Plasmacytoid dendritic cell
[9] = biological target: T2, Cystine/glutamate transporter (Homo sapiens); assay: Inhibition of XCT in IL-3 and CpG-A-stimulated human plasmacytoid dendritic cells assessed as decrease in IFN-alpha production in presence of mavrilimumab; format: cell-based; conditions: Plasmacytoid dendritic cell
[10] = biological target: T2, Cystine/glutamate transporter (Homo sapiens); assay: Inhibition of XCT in CpG-A-activated human plasmacytoid dendritic cells at 200 uM assessed as decrease in IFN-alpha production; format: cell-based; conditions: Plasmacytoid dendritic cell
[11] = biological target: T2, Cystine/glutamate transporter (Homo sapiens); assay: Inhibition of XCT in IL-3 and CpG-A-stimulated human plasmacytoid dendritic cells at 100 uM assessed as decrease in IFN-alpha production in presence of 0.2 to 5 ug/ml IGN523; format: cell-based; conditions: Plasmacytoid dendritic cell
[12] = biological target: T2, Cystine/glutamate transporter (Homo sapiens); assay: Inhibition of XCT in CpG-A-activated human plasmacytoid dendritic cells at 200 uM assessed as decrease in ENPP2 expression; format: cell-based; conditions: Plasmacytoid dendritic cell
[13] = biological target: T2, Cystine/glutamate transporter (Homo sapiens); assay: Inhibition of XCT in CpG-A-activated human plasmacytoid dendritic cells at 200 uM assessed as decrease in MYO1E expression; format: cell-based; conditions: Plasmacytoid dendritic cell
[14] = biological target: T2, Cystine/glutamate transporter (Homo sapiens); assay: Inhibition of XCT in CpG-A-activated human plasmacytoid dendritic cells at 200 uM assessed as decrease in kynurenine uptake; format: cell-based; conditions: Plasmacytoid dendritic cell
[15] = biological target: T2, Cystine/glutamate transporter (Homo sapiens); assay: Inhibition of XCT in IL-3 and CpG-A-stimulated human plasmacytoid dendritic cells assessed as decrease in TNF production in presence of mavrilimumab; format: cell-based; conditions: Plasmacytoid dendritic cell
[16] = biological target: T2, Cystine/glutamate transporter (Homo sapiens); assay: Inhibition of XCT in IL-3 and CpG-A-stimulated human plasmacytoid dendritic cells at 100 uM assessed as decrease in IFN-alpha production in presence of 1 to 2 uM pimozide; format: cell-based; conditions: Plasmacytoid dendritic cell
[17] = biological target: T2, Cystine/glutamate transporter (Homo sapiens); assay: Inhibition of XCT in CpG-A-activated human plasmacytoid dendritic cells at 100 uM assessed as decrease in IFN-alpha production in presence of 25 to 100 uM baricitinib; format: cell-based; conditions: Plasmacytoid dendritic cell
[18] = biological target: T2, Cystine/glutamate transporter (Homo sapiens); assay: Inhibition of XCT in IL-3 and CpG-A-stimulated human plasmacytoid dendritic cells at 100 uM assessed as decrease in IFN-alpha production in presence of 10 to 50 nM IQDMA; format: cell-based; conditions: Plasmacytoid dendritic cell
[19] = biological target: T2, Cystine/glutamate transporter (Homo sapiens); assay: Inhibition of XCT in CpG-A-activated human plasmacytoid dendritic cells at 200 uM assessed as decrease in S6 phosphorylation; format: cell-based; conditions: Plasmacytoid dendritic cell
[20] = biological target: T2, Cystine/glutamate transporter (Homo sapiens); assay: Inhibition of XCT in IL-3 and CpG-A-stimulated human plasmacytoid dendritic cells at 100 uM assessed as decrease in IFN-alpha production in presence of 1 to 2 uM AC-4-130; format: cell-based; conditions: Plasmacytoid dendritic cell
[21] = biological target: T2, Cystine/glutamate transporter (Homo sapiens); assay: Inhibition of XCT in IL-3 and CpG-A-stimulated human plasmacytoid dendritic cells at 100 uM assessed as decrease in TNF production in presence of 1 to 2 uM pimozide; format: cell-based; conditions: Plasmacytoid dendritic cell
[22] = biological target: T2, Cystine/glutamate transporter (Homo sapiens); assay: Inhibition of XCT in IL-3 CpG-A-activated human plasma at 200 uM assessed as decrease in pDC activation
[23] = biological target: T2, Cystine/glutamate transporter (Homo sapiens); assay: Inhibition of XCT in CpG-A-activated human plasmacytoid dendritic cells at 200 uM assessed as decrease in TNF production; format: cell-based; conditions: Plasmacytoid dendritic cell
[24] = biological target: T2, Cystine/glutamate transporter (Homo sapiens); assay: Inhibition of XCT in IL-3 and CpG-A-stimulated human plasmacytoid dendritic cells at 100 uM assessed as decrease in TNF production in presence of 0.2 to 5 ug/ml IGN523; format: cell-based; conditions: Plasmacytoid dendritic cell
[25] = biological target: Large neutral amino acids transporter small subunit 1 (Homo sapiens) (UniProt Q01650); assay: Inhibition of SLC7A5 in CpG-A-stimulated human plasmacytoid dendritic cells at 5 to 10 uM assessed as decrease in pS6 levels; format: cell-based; conditions: Plasmacytoid dendritic cell, dose 5-10 µM
Sequence of Large neutral amino acids transporter small subunit 1 (Homo sapiens) (Q01650 whole entry): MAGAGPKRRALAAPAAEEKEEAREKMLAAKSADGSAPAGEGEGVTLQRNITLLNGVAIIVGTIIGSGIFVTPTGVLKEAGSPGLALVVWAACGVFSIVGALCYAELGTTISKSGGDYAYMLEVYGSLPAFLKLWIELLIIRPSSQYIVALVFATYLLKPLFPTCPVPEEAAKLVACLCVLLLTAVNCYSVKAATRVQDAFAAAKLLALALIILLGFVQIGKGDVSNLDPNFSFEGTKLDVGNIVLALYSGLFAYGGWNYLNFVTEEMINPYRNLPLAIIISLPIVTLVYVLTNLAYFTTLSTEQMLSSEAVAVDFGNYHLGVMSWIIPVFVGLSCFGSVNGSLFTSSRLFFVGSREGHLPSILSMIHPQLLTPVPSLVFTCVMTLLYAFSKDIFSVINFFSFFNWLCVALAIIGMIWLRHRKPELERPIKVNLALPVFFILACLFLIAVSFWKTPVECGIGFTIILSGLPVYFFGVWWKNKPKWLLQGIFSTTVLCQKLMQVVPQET

[26] = biological target: Large neutral amino acids transporter small subunit 1 (Homo sapiens) (UniProt Q01650); assay: Inhibition of SLC7A5 in CpG-A-stimulated human plasmacytoid dendritic cells at 5 to 10 uM assessed as decrease in kynurenine transport; format: cell-based; conditions: Plasmacytoid dendritic cell, dose 5-10 µM
[27] = biological target: Large neutral amino acids transporter small subunit 1 (Homo sapiens) (UniProt Q01650); assay: Inhibition of SLC7A5 in CpG-A-stimulated human plasmacytoid dendritic cells at 5 to 10 uM assessed as decrease in TNF production; format: cell-based; conditions: Plasmacytoid dendritic cell, dose 5-10 µM
[28] = test system: Plasmacytoid dendritic cell; assay: Inhibition of SLC7A5/SLC3A2 in IL-3 and CpG-A-stimulated human plasmacytoid dendritic cells at 1 to 2 uM assessed as decrease in IFN-alpha production in presence of 100 uM sulfasalazine; format: cell-based; conditions: dose 1-2 µM
[29] = biological target: Large neutral amino acids transporter small subunit 1 (Homo sapiens) (UniProt Q01650); assay: Inhibition of SLC7A5 in CpG-A-stimulated human plasmacytoid dendritic cells at 5 to 10 uM assessed as decrease in IFN-alpha production; format: cell-based; conditions: Plasmacytoid dendritic cell, dose 5-10 µM
[30] = test system: Plasmacytoid dendritic cell; assay: Inhibition of SLC7A5/SLC3A2 in IL-3 and CpG-A-stimulated human plasmacytoid dendritic cells at 1 to 2 uM assessed as decrease in TNF production in presence of 100 uM sulfasalazine; format: cell-based; conditions: dose 1-2 µM

Measured: inhibition

CN(Cc1cnc2nc(N)nc(N)c2n1)c1ccc(C(=O)N[C@@H](CCC(=O)O)C(=O)O)cc1
active: [1] | [2]

O=C(O)c1cc(/N=N/c2ccc(S(=O)(=O)Nc3ccccn3)cc2)ccc1O
not listed: [1] | [2] | [25] | [26] | [27] | [28] | [29] | [30]
active: all other assays above

Nc1cc(COc2c(Cl)cc(C[C@H](N)C(=O)O)cc2Cl)c2oc(-c3ccccc3)nc2c1
active: [25] | [26] | [27] | [28] | [29] | [30]
